Laboratory results from patent US11472843B2, “Malacidins and methods of use” (The Rockefeller University, priority 2017, dated 2022).
≈ marks a conversion by molar mass, not a printed value. Like-named read-outs stand apart in the source and are kept apart here.

Tests used:
S. aureus USA300 = experiment: MIC assay, S. aureus USA300 (MRSA); assay type: cell-based, Staphylococcus aureus; details: Staphylococcus aureus USA300, β-lactams (Methicillin, Oxacillin, Penicillin)
Method: (§1) MIC assays were performed in duplicate in 96-well microtiter plates on the basis of the protocol recommended by the Clinical and Laboratory Standards Institute (Cockerill, 2012, Clinical and Laboratory Standards Institute). All presented data are the average of at least three independent assays. Stock solutions of malacidin or daptomycin (2 mg ml^−1 in H2O) were added to the first well in a row and serially diluted (twofold per transfer) across the microtiter plate. CaCl2 was supplemented to media at a final concentration of 15 mM and fetal bovine serum (ATCC) was added to media (1:10) to test the effect of serum. Overnight cultures of bacteria were diluted 5,000-fold, and 50 μl was used as an inoculum in each well. MIC values were determined by visual inspection after 18 h incubation (30° C., static growth). For the enhanced calcium titration experiments, standard MIC assays were performed with methicillin-resistant Staphylococcus aureus (MRSA) PFGE strain type USA300 in media supplemented with CaCl2 at: 25.0, 18.8, 14.1, 7.03, 3.52, 2.50, 1.76, 0.880, 0.440, 0.250 and 0 mM. To assess the effects of monovalent and divalent cations on malacidin activity, standard MIC assays were performed with MRSA USA300 in media supplemented with 15 mM CaCl2, MgCl2, MnCl2, ZnCl2, SrCl2, NaCl and KCl. To evaluate the effects of pulmonary surfactants on activity against a community-acquired pneumonia-causing pathogen, standard MIC assays were performed with Streptococcus pneumoniae TCH8431 in media supplemented with both 15 mM CaCl1 and Survanta (beractant) at a final concentration of 5, 1, 0.5, 0.25 or 0% (volume/volume (v/v) percent).

S. aureus COL = experiment: MIC assay, S. aureus COL; assay type: cell-based, Staphylococcus aureus; details: Staphylococcus aureus COL; β-lactams; read-out: MIC
Method: as §1

S. aureus BAA-42 = experiment: MIC assay, S. aureus BAA-42; assay type: cell-based, Staphylococcus aureus; details: BAA42; Staphylococcus aureus BAA-42; β-lactams; read-out: MIC
Method: as §1

S. aureus NRS100 = experiment: MIC assay, S. aureus NRS100; assay type: cell-based, Staphylococcus aureus; details: Staphylococcus aureus NRS100; β-lactams, Tetracycline; read-out: MIC
Method: as §1

S. aureus NRS108 = experiment: MIC assay, S. aureus NRS108; assay type: cell-based, Staphylococcus aureus; details: Staphylococcus aureus NRS108; β-lactams, Gentamicin, Kanamycin; read-out: MIC
Method: as §1

S. aureus NRS140 = experiment: MIC assay, S. aureus NRS140; assay type: cell-based, Staphylococcus aureus; details: Staphylococcus aureus NRS140; β-lactams, Erythromycin, Spectinomycin; read-out: MIC
Method: as §1

S. aureus NRS146 = experiment: MIC assay, S. aureus NRS146; assay type: cell-based, Staphylococcus aureus; details: NRS 146 / VISA; Staphylococcus aureus NRS146; β-lactams, Vancomycin (VISA); read-out: MIC
Method: as §1

E. faecium VRE = experiment: MIC assay, E. faecium VRE; assay type: cell-based, Enterococcus faecium; details: Enterococcus faecium VRE; Vancomycin (VRE); read-out: MIC
Method: as §1

E. faecium Com15 = experiment: MIC assay, E. faecium Com15; assay type: cell-based, Enterococcus faecium; details: Enterococcus faecium Com15
Method: as §1

[1] = system: Streptococcus pneumoniae TCH8431; experiment: MIC assay, S. pneumoniae; assay type: cell-based; details: Streptococcus pneumoniae TCH8431; read-out: MIC
Method: as §1

[2] = system: Bacillus subtilis 168 IAI; experiment: MIC assay, B. subtilis; assay type: cell-based; details: Bacillus subtilis 168 IAI; read-out: MIC
Method: as §1

Escherichia coli DH5α = experiment: MIC assay, E. coli DH5α; assay type: cell-based
Method: as §1

Escherichia coli BAS849 = experiment: MIC assay, E. coli BAS849; assay type: cell-based
Method: as §1, with “To evaluate the effects of pulmonary surfactants on activity against a community-acquired pneumonia-causing pathogen, standard MIC assays were performed with Streptococcus pneumoniae TCH8431 in media supplemented with both 15 mM CaCl1 and Survanta (beractant) at a final concentration of 5, 1, 0.5, 0.25 or 0% (volume/volume (v/v) percent).” left out

[3] = system: Candida albicans ATCC 1884; experiment: MIC assay, C. albicans; assay type: cell-based; details: Candida albicans ATCC 1884
Method: as §1

[4] = system: Cryptococcus neoformans ATCC 32045; experiment: MIC assay, C. neoformans; assay type: cell-based; details: Cryptococcus neoformans ATCC 32045
Method: as §1

[5] = system: Acinetobacter baumannii ATCC 17978; experiment: MIC assay, A. baumannii; assay type: cell-based
Method: as §1

[6] = system: Klebsiella pneumonia ATCC 10031; experiment: MIC assay, Klebsiella pneumonia; assay type: cell-based
Method: as §1

[7] = system: Pseudomonas aeruginosa PAO1; experiment: MIC assay, P. aeruginosa; assay type: cell-based
Method: as §1

[8] = system: Salmonella enterica IR 715; experiment: MIC assay, Salmonella enterica; assay type: cell-based
Method: as §1

MRSA USA300 = experiment: Membrane leakage assay (SYTOX green); assay type: cell-based, Staphylococcus aureus; details: 20 μg ml^−1
Method: The effects of malacidin on membrane integrity was assessed using SYTOX green. In brief, single colonies of MRSA USA300 were grown in LB media with and without 15 mM CaCl2 to an OD600 nm of 0.35. Nine hundred microlitres of cells were mixed with 100 μL of 17 μM SYTOX green dye (Thermo Fisher). The resulting mixture was incubated for 5 min at 22° C., and then distributed to a microtiter plate at 50 μl per well. An initial reading of fluorescence pre-antibiotic addition was measured at excitation and emission wavelengths of 488 nm and 523 nm, respectively. Fifty microlitres of antibiotics was added to respective wells at a final concentration of 20 μg ml^−1. Measurements were immediately collected for 10 min. To assess the effects of malacidin on membrane depolarization, similar assays were set up using the membrane potential probe, DiBAC4 (bis-(1,3-dibutylbarbituric acid)trimethine oxonol). Single colonies of MRSA USA300 were grown in LB media with and without 15 mM CaCl2 to an OD600 nm of 0.35. Nine hundred microlitres of cells were mixed with 100 μl of 20 μg ml DiBAC4dye (Thermo Fisher). The resulting mixture was incubated for 5 min at 22° C., and then distributed to a microtiter plate at 50 μl per well. An initial reading of fluorescence pre-antibiotic addition was measured at excitation and emission wavelengths of 492 nm and 515 nm, respectively. Fifty microlitres of antibiotics was added to respective wells at a final concentration of 20 μg ml^−1. Measurements were immediately collected for 10 min. Representative examples from three technical replicates are shown.

[9] = system: Streptococcus pneumoniae TCH8431; details: from Silverman et al., 2005; cited from earlier work
[10] = system: UDP-MurNAc-pentapeptide in MRSA USA300; experiment: UDP-MurNAc-pentapeptide accumulation assay; assay type: cell-based, Staphylococcus aureus; details: 10 μg ml^−1, 60 min, UPLC-MS
Method: The intracellular accumulation of the cell wall precursor UDP-MurNAc-pentapeptide after treatment of MRSA USA300 with malacidin was assessed as previously described (Schneider et al., […], Antimicrob Agents Ch 53:1610-18). In brief, single colonies of MRSA USA300 were grown in LB media with and without 15 mM CaCl2 to an OD600 nm of 0.6. […] of cells and medium were incubated with a final concentration of 130 μg ml^−1 chloramphenicol for 15 min at 37° C. Antibiotics to be assayed were added at 10 μg ml^−1 and incubated for 60 min at 37° C. Vancomycin, known to form a complex with lipid II, was used as a positive control. Cells were collected by centrifugation, and resuspended in 30 μl dH2O and incubated in boiling water for 15 min. The cell extract was then centrifuged at 14,000 g. Supernatant was analysed for UDP-linked cell wall precursors by a UPLC-MS system. Experiments were performed with biological replicates.

`CCCCCCCCCC(=O)N[C@@H](Cc1c[nH]c2ccccc12)C(=O)N[C@H](CC(N)=O)C(=O)N[C@@H](CC(=O)O)C(=O)N[C@@H]1C(=O)NCC(=O)N[C@@H](CCCN)C(=O)N[C@@H](CC(=O)O)C(=O)N[C@H](C)C(=O)N[C@@H](CC(=O)O)C(=O)NCC(=O)N[C@H](CO)C(=O)N[C@@H]([C@H](C)CC(=O)O)C(=O)N[C@@H](CC(=O)c2ccccc2N)C(=O)O[C@@H]1C` [Daptomycin, daptomycin, reference compound] gave an MIC (S. aureus USA300; read-out: MIC) of 0.2 to 0.8 µg/mL (≈ 0.123 to 0.494 µM), an MIC (S. aureus COL) of 0.2 to 0.8 µg/mL (≈ 0.123 to 0.494 µM) and an MIC (S. aureus BAA-42) of 0.2 to 0.8 µg/mL (≈ 0.123 to 0.494 µM). For the same compound, the MIC (S. aureus NRS100) was 0.2 to 0.8 µg/mL (≈ 0.123 to 0.494 µM), the MIC (S. aureus NRS108) was 0.2 to 0.8 µg/mL (≈ 0.123 to 0.494 µM) and the MIC (S. aureus NRS140) was 0.2 to 0.8 µg/mL (≈ 0.123 to 0.494 µM). The MIC (S. aureus NRS146) was 0.2 to 0.8 µg/mL (≈ 0.123 to 0.494 µM), the MIC (E. faecium VRE) was 0.4 to 2 µg/mL (≈ 0.247 to 1.23 µM) and the MIC (E. faecium Com15; read-out: MIC) was 0.4 to 2 µg/mL (≈ 0.247 to 1.23 µM). The MIC [1] was 0.1 to 0.2 µg/mL (≈ 0.0617 to 0.123 µM), the MIC [2] was 0.2 to 0.4 µg/mL (≈ 0.123 to 0.247 µM) and the MIC (Escherichia coli DH5α; read-out: MIC) was over 100 µg/mL. It also gave an MIC (Escherichia coli BAS849) of 50 to 100 µg/mL (≈ 30.9 to 61.7 µM), an MIC ([3]; ATCC1884, read-out: MIC) of over 100 µg/mL and an MIC ([4]; ATCC32045, read-out: MIC) of over 100 µg/mL. It also gave an MIC ([5]; ATCC17978, range of at least three independent experiments, read-out: MIC) of over 100 µg/mL, an MIC ([6]; Klebsiella pneumoniae, ATCC10031, read-out: MIC) of over 100 µg/mL and an MIC ([7]; read-out: MIC) of over 100 µg/mL. The MIC ([8]; IR715, read-out: MIC) was over 100 µg/mL, the “Membrane leakage (SYTOX green or DiBAC4)” value (MRSA USA300; absence of calcium supplementation) was “No membrane leakage” and the “Membrane leakage (SYTOX green fluorescence)” value (MRSA USA300; with calcium (15 mM CaCl2)) was “rapid increase in fluorescence”. The “Activity in the presence of pulmonary surfactants” value [9] was “loss of activity”.

For `CN[C@H](CC(C)C)C(=O)N[C@H]1C(=O)N[C@@H](CC(N)=O)C(=O)N[C@H]2C(=O)N[C@H]3C(=O)N[C@H](C(=O)N[C@H](C(=O)O)c4cc(O)cc(O)c4-c4cc3ccc4O)[C@H](O)c3ccc(c(Cl)c3)Oc3cc2cc(c3O[C@@H]2O[C@H](CO)[C@@H](O)[C@H](O)[C@H]2O[C@H]2C[C@](C)(N)[C@H](O)[C@H](C)O2)Oc2ccc(cc2Cl)[C@H]1O` [vancomycin, reference compound], the “Accumulation of cell wall intermediate UDP-MurNAc-pentapeptide” value [10] was “accumulation of the cell wall intermediate UDP-MurNAc-pentapeptide”.

For malacidin B, the MIC (S. aureus USA300) was 0.4 to 0.8 µg/mL, the MIC (E. faecium Com15) was 0.8 to 2.0 µg/mL and the MIC (Escherichia coli DH5α) was over 100 µg/mL. The MIC [3] was over 100 µg/mL, the MIC [4] was over 100 µg/mL and the MIC ([5]; range of at least three independent experiments) was over 100 µg/mL. It also gave an MIC [6] of over 100 µg/mL, an MIC [7] of over 100 µg/mL and an MIC [8] of over 100 µg/mL.
